Laboratory results: patent publication US10206394B2, “Herbicidal compounds” (Syngenta Participations AG, priority 2014, dated 2019)
Like-named read-outs stand apart in the source and are kept apart here.

Legend:
Assay in all cases: Glasshouse assay for herbicidal activity (pre- and post-emergence), percentage phytotoxicity
Format in all cases: in vivo
[1] = system: Echinochloa crus-galli (ECHCG); settings: Echinochloa crus-galli
Summary of the method: (§1)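 Percent injury was estimated by eye on a scale where 0% means no damage and 100% complete damage. Ratings came 15 DAA post-emergence and 20 DAA pre-emergence, with plants held under 16 h light and 65% humidity at 24/18 °C or 20/16 °C day/night.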

Avena fatua (AVEFA) = settings: Avena fatua
Summary of the method: as §1

Lolium perenne (LOLPE) = settings: Lolium perenne
Summary of the method: as §1

[2] = system: Alopecurus myosuroides (ALOMY); settings: Alopecurus myosuroides
Summary of the method: as §1

[3] = post-emergence, 360 h, 250 g/ha, post-emergence, 15 DAA, visual assessment (100%=total damage, 0%=no damage), read-out: Post-emergence herbicidal activity (percentage phytotoxicity) ECHCG POST
[4] = pre-emergence, 480 h, 250 g/ha, pre-emergence, 20 DAA, visual assessment (100%=total damage, 0%=no damage), read-out: Pre-emergence herbicidal activity (percentage phytotoxicity) ECHCG PRE
[5] = post-emergence, 360 h, 250 g/ha, post-emergence, 15 DAA, visual assessment (100%=total damage, 0%=no damage), read-out: Post-emergence herbicidal activity (percentage phytotoxicity) AVEFA POST
[6] = pre-emergence, 480 h, 250 g/ha, pre-emergence, 20 DAA, visual assessment (100%=total damage, 0%=no damage), read-out: Pre-emergence herbicidal activity (percentage phytotoxicity) AVEFA PRE
[7] = post-emergence, 360 h, 250 g/ha, post-emergence, 15 DAA, visual assessment (100%=total damage, 0%=no damage), read-out: Post-emergence herbicidal activity (percentage phytotoxicity) LOLPE POST
[8] = pre-emergence, 480 h, 250 g/ha, pre-emergence, 20 DAA, visual assessment (100%=total damage, 0%=no damage), read-out: Pre-emergence herbicidal activity (percentage phytotoxicity) LOLPE PRE
[9] = post-emergence, 360 h, 250 g/ha, post-emergence, 15 DAA, visual assessment (100%=total damage, 0%=no damage), read-out: Post-emergence herbicidal activity (percentage phytotoxicity) ALOMY POST
[10] = pre-emergence, 480 h, 250 g/ha, pre-emergence, 20 DAA, visual assessment (100%=total damage, 0%=no damage), read-out: Pre-emergence herbicidal activity (percentage phytotoxicity) ALOMY PRE

Row | SMILES | pest or weed control at 250 g/ha [1, 3] | pest or weed control at 250 g/ha [1, 4] | pest or weed control at 250 g/ha (Avena fatua (AVEFA); [5]) | pest or weed control at 250 g/ha (Avena fatua (AVEFA); [6]) | pest or weed control at 250 g/ha (Lolium perenne (LOLPE); [7]) | pest or weed control at 250 g/ha (Lolium perenne (LOLPE); [8]) | pest or weed control at 250 g/ha [2, 9] | pest or weed control at 250 g/ha [2, 10] | further results
1 | Cc1cc(-c2ncc(Cl)cc2F)cc(C)c1C1C(=O)CC(CC(=O)NCc2ccsc2Br)C1=O (stereo not drawn) [Compound A127] | – | – | – | – | – | – | – | – | pest or weed control at 250 g/ha ([1]; post-emergence, 360 h, Rate 250 g/ha, post-emergence, assessed visually 15 DAA, 100%=total damage, 0%=no damage, read-out: Post-emergence herbicidal activity (percentage phytotoxicity) ECHCG POST): 100%; pest or weed control at 250 g/ha ([1]; pre-emergence, 480 h, Rate 250 g/ha, pre-emergence, assessed visually 20 DAA, 100%=total damage, 0%=no damage, read-out: Pre-emergence herbicidal activity (percentage phytotoxicity) ECHCG PRE): 60%; pest or weed control at 250 g/ha (Avena fatua (AVEFA); post-emergence, 360 h, Rate 250 g/ha, post-emergence, assessed visually 15 DAA, 100%=total damage, 0%=no damage, read-out: Post-emergence herbicidal activity (percentage phytotoxicity) AVEFA POST): 70%; pest or weed control at 250 g/ha (Avena fatua (AVEFA); pre-emergence, 480 h, Rate 250 g/ha, pre-emergence, assessed visually 20 DAA, 100%=total damage, 0%=no damage, read-out: Pre-emergence herbicidal activity (percentage phytotoxicity) AVEFA PRE): 20%; pest or weed control at 250 g/ha (Lolium perenne (LOLPE); post-emergence, 360 h, Rate 250 g/ha, post-emergence, assessed visually 15 DAA, 100%=total damage, 0%=no damage, read-out: Post-emergence herbicidal activity (percentage phytotoxicity) LOLPE POST): 90%; pest or weed control at 250 g/ha (Lolium perenne (LOLPE); pre-emergence, 480 h, Rate 250 g/ha, pre-emergence, assessed visually 20 DAA, 100%=total damage, 0%=no damage, read-out: Pre-emergence herbicidal activity (percentage phytotoxicity) LOLPE PRE): 60%; pest or weed control at 250 g/ha ([2]; post-emergence, 360 h, Rate 250 g/ha, post-emergence, assessed visually 15 DAA, 100%=total damage, 0%=no damage, read-out: Post-emergence herbicidal activity (percentage phytotoxicity) ALOMY POST): 70%; pest or weed control at 250 g/ha ([2]; pre-emergence, 480 h, Rate 250 g/ha, pre-emergence, assessed visually 20 DAA, 100%=total damage, 0%=no damage, read-out: Pre-emergence herbicidal activity (percentage phytotoxicity) ALOMY PRE): 0%
2 | Cc1cc(-c2ncc(F)cc2F)cc(C)c1C1C(=O)CC(CC(=O)N2CCOCC2)C1=O (stereo not drawn) [Compound B101] | 100% | 100% | 90% | 70% | 100% | 100% | 90% | 90% | –
3 | Cc1cc(C)c(C2C(=O)CC(CC(N)=O)C2=O)c(C)c1 (stereo not drawn) [Compound A187] | – | – | – | – | – | – | – | – | pest or weed control at 250 g/ha ([1]; post-emergence, 360 h, post-emergence, 250 g/ha, 15 DAA, visual score (100%=total damage; 0%=no damage), read-out: ECHCG POST herbicidal activity (percentage phytotoxicity)): 100%; pest or weed control at 250 g/ha ([1]; pre-emergence, 480 h, pre-emergence, 250 g/ha, 20 DAA, visual score (100%=total damage; 0%=no damage), read-out: ECHCG PRE herbicidal activity (percentage phytotoxicity)): 90%; pest or weed control at 250 g/ha (Avena fatua (AVEFA); post-emergence, 360 h, post-emergence, 250 g/ha, 15 DAA, visual score (100%=total damage; 0%=no damage), read-out: AVEFA POST herbicidal activity (percentage phytotoxicity)): 100%; pest or weed control at 250 g/ha (Avena fatua (AVEFA); pre-emergence, 480 h, pre-emergence, 250 g/ha, 20 DAA, visual score (100%=total damage; 0%=no damage), read-out: AVEFA PRE herbicidal activity (percentage phytotoxicity)): 90%; pest or weed control at 250 g/ha (Lolium perenne (LOLPE); post-emergence, 360 h, post-emergence, 250 g/ha, 15 DAA, visual score (100%=total damage; 0%=no damage), read-out: LOLPE POST herbicidal activity (percentage phytotoxicity)): 90%; pest or weed control at 250 g/ha (Lolium perenne (LOLPE); pre-emergence, 480 h, pre-emergence, 250 g/ha, 20 DAA, visual score (100%=total damage; 0%=no damage), read-out: LOLPE PRE herbicidal activity (percentage phytotoxicity)): 100%; pest or weed control at 250 g/ha ([2]; post-emergence, 360 h, post-emergence, 250 g/ha, 15 DAA, visual score (100%=total damage; 0%=no damage), read-out: ALOMY POST herbicidal activity (percentage phytotoxicity)): 80%; pest or weed control at 250 g/ha ([2]; pre-emergence, 480 h, pre-emergence, 250 g/ha, 20 DAA, visual score (100%=total damage; 0%=no damage), read-out: ALOMY PRE herbicidal activity (percentage phytotoxicity)): 80%
4 | Cc1cc(C)c(C2C(=O)CC(CC(=O)N[C@@H]3C[C@@H]3F)C2=O)c(C)c1 (stereo partly drawn) [Compound B81] | 80% | 90% | 90% | 0% | 90% | 90% | 80% | 70% | –
5 | Cc1cc(-c2ncc(F)cc2F)cc(C)c1C1C(=O)CC(CC(=O)NCc2ccc(F)c(F)c2)C1=O (stereo not drawn) [Compound B73] | 100% | 100% | 100% | 90% | 100% | 90% | 100% | 90% | –
6 | Cc1cc(-c2ncc(Cl)cn2)cc(C)c1C1C(=O)CC(CC(=O)NC(C)C)C1=O (stereo not drawn) [Compound B340] | – | – | – | – | – | – | – | – | pest or weed control at 250 g/ha ([1]; post-emergence, 360 h, Rate 250 g/ha, post-emergence, visual assessment 15 DAA, 100%=total damage, 0%=no damage, read-out: Post-emergence herbicidal activity (percentage phytotoxicity) ECHCG POST): 100%; pest or weed control at 250 g/ha ([1]; pre-emergence, 480 h, Rate 250 g/ha, pre-emergence, visual assessment 20 DAA, 100%=total damage, 0%=no damage, read-out: Pre-emergence herbicidal activity (percentage phytotoxicity) ECHCG PRE): 100%; pest or weed control at 250 g/ha (Avena fatua (AVEFA); post-emergence, 360 h, Rate 250 g/ha, post-emergence, visual assessment 15 DAA, 100%=total damage, 0%=no damage, read-out: Post-emergence herbicidal activity (percentage phytotoxicity) AVEFA POST): 100%; pest or weed control at 250 g/ha (Avena fatua (AVEFA); pre-emergence, 480 h, Rate 250 g/ha, pre-emergence, visual assessment 20 DAA, 100%=total damage, 0%=no damage, read-out: Pre-emergence herbicidal activity (percentage phytotoxicity) AVEFA PRE): 100%; pest or weed control at 250 g/ha (Lolium perenne (LOLPE); post-emergence, 360 h, Rate 250 g/ha, post-emergence, visual assessment 15 DAA, 100%=total damage, 0%=no damage, read-out: Post-emergence herbicidal activity (percentage phytotoxicity) LOLPE POST): 100%; pest or weed control at 250 g/ha (Lolium perenne (LOLPE); pre-emergence, 480 h, Rate 250 g/ha, pre-emergence, visual assessment 20 DAA, 100%=total damage, 0%=no damage, read-out: Pre-emergence herbicidal activity (percentage phytotoxicity) LOLPE PRE): 100%; pest or weed control at 250 g/ha ([2]; post-emergence, 360 h, Rate 250 g/ha, post-emergence, visual assessment 15 DAA, 100%=total damage, 0%=no damage, read-out: Post-emergence herbicidal activity (percentage phytotoxicity) ALOMY POST): 100%; pest or weed control at 250 g/ha ([2]; pre-emergence, 480 h, Rate 250 g/ha, pre-emergence, visual assessment 20 DAA, 100%=total damage, 0%=no damage, read-out: Pre-emergence herbicidal activity (percentage phytotoxicity) ALOMY PRE): 100%
